Experimental data reported in US11135237B2, “Lipophosphonoxins of second generation, and their use” (USTAV ORGANICKE CHEMIE A BIOCHEMIE AV CR, V.V.I., priority 2016, dated 2021).
Values after ≈ are worked out from the molar mass of the structure shown.

Tests used:
Format in all cases: cell-based
[1] = test system: Escherichia coli CCM 3954; experiment: MIC, microdilution method, reference strains; conditions: CCM3954, read after 24/48 hours of incubation at 37° C.
Protocol: (§1) Antibacterial activity was measured using a standard microdilution method, showing the minimum inhibitory concentration (MIC) of the test sample which results in inhibition of bacterial growth. Disposable microtiter plates were used for the tests. Samples are dissolved in the brain-heart infusion broth (HiMedia Laboraties Pvt. Ltd., Czech Republic), and Mueller Hinton broth (HiMedia Laboraties, see above) at a final concentration ranging from 200 μg/ml to 1.5625 μg/ml. Plates were inoculated with a standard amount of test bacteria-inoculum density in the hole corresponds to 10^5-6 CFU/ml (colony forming units/ml). MIC values are read after 24/48 hours of incubation at 37° C. as the minimum inhibitory concentration of the test substance at which the growth of bacteria is inhibited. Minimal bactericidal concentration (MBC) is defined as the minimum concentration of the sample needed to achieve irreversible inhibition, therefore killing the bacteria after a defined time of incubation. The MBC was determined by inoculation method. 10 μl from the wells in a microplate with a defined concentration of test substance is taken with an applicator, and inoculated onto the surface of blood agar (Trios, Czech Republic) and Sabouraud agar (Trios, CR). The MBC was determined as the lowest concentration that inhibited visible growth of the bacteria used. Standard reference bacterial strains (Escherichia coli CCM 3954, Pseudomonas aeruginosa CCM 3955, Enterococcus faecalis CCM 4224, Staphylococcus aureus CCM 4223) were obtained from the Czech Collection of Microorganisms (CCM) at […] University in Brno. Streptococcus agalactiae, Bacillus subtilis were obtained from the University Hospital Olomouc. The tested microorganisms were maintained in cryobanks (ITEST plus, Czech Republic) at -80° C.

Streptococcus agalactiae = experiment: MIC, microdilution method, reference strains; conditions: read after 24/48 hours of incubation at 37° C.
Protocol: as §1

Bacillus subtilis = experiment: MIC, microdilution method, reference strains; conditions: read after 24/48 hours of incubation at 37° C.
Protocol: as §1

[2] = test system: Pseudomonas aeruginosa CCM 3955; experiment: MIC, microdilution method, reference strains; conditions: CCM3955, read after 24/48 hours of incubation at 37° C.
Protocol: as §1

[3] = test system: Enterococcus faecalis CCM 4224; experiment: MIC, microdilution method, reference strains; conditions: CCM4224, read after 24/48 hours of incubation at 37° C.
Protocol: as §1

[4] = test system: Staphylococcus aureus CCM 4223; experiment: MIC, microdilution method, reference strains; conditions: CCM4223, read after 24/48 hours of incubation at 37° C.
Protocol: as §1

S. aureus MRSA 4591 = experiment: MIC, microdilution method, resistant strains; conditions: Staphylococcus aureus, methicillin-resistant strain, clinical isolate
Protocol: (§2) Antibacterial activity was measured using a standard microdilution method, showing the minimum inhibitory concentration (MIC) of the test sample which results in inhibition of bacterial growth. Disposable microtiter plates were used for the tests. Samples are dissolved in the brain-heart infusion broth (HiMedia Laboraties Pvt. Ltd., Czech Republic), and Mueller Hinton broth (HiMedia Laboraties, see above) at a final concentration ranging from 200 μg/ml to 1.5625 μg/ml. Plates were inoculated with a standard amount of test bacteria—inoculum density in the hole corresponds to 10^5-6 CFU/ml (colony forming units/ml). MIC values are read after 24/48 hours of incubation at 37° C. as the minimum inhibitory concentration of the test substance at which the growth of bacteria is inhibited. Minimal bactericidal concentration (MBC) is defined as the minimum concentration of the sample needed to achieve irreversible inhibition, therefore killing the bacteria after a defined time of incubation. The MBC was determined by inoculation method. 10 μl from the wells in a microplate with a defined concentration of test substance is taken with an applicator, and inoculated onto the surface of blood agar (Trios, Czech Republic) and Sabouraud agar (Trios, CR). The MBC was determined as the lowest concentration that inhibited visible growth of the bacteria used.

S. epidermidis 8700B = experiment: MIC, microdilution method, resistant strains; conditions: Staphylococcus epidermidis, methicilin-resistant strain, clinical isolate
Protocol: as §2

P. aeruginosa 16575 = experiment: MIC, microdilution method, resistant strains; conditions: Pseudomonas aeruginosa, resistant strain, clinical isolate
Protocol: as §2

E. coli 16702 = experiment: MIC, microdilution method, resistant strains; conditions: Escherichia coli, resistant strain, clinical isolate
Protocol: as §2

E. faecium VanA 419ana = experiment: MIC, microdilution method, resistant strains; conditions: Enterococcus faecium, VANA419ANA; vancomycin-resistant strain, clinical isolate
Protocol: as §2

S. haemolyticus 16568 = experiment: MIC, microdilution method, resistant strains; conditions: Staphylococcus haemolyticus, fluoroquinolone-resistant strain, clinical isolate
Protocol: as §2

[5] = test system: Burkholderia multivorans ATCC BAA-247; experiment: MIC, microdilution method; conditions: ATCCBAA247, read after 24/48 hours of incubation at 37° C.
Protocol: as §2

[6] = test system: Salmonella Enteritidis S2-25; experiment: MIC, microdilution method; conditions: Salmonella enterica, read after 24/48 hours of incubation at 37° C.
Protocol: as §2

[7] = test system: Acinetobacter baumanii A3-08; experiment: MIC, microdilution method; conditions: Acinetobacter baumannii, A308; read after 24/48 hours of incubation at 37° C.
Protocol: as §2

[8] = test system: Stenotrophomonas matophilia S2-23; experiment: MIC, microdilution method; conditions: S223, read after 24/48 hours of incubation at 37° C.
Protocol: as §2

| SMILES | MIC [1] [µg/mL] | MIC (Streptococcus agalactiae) [µg/mL] | MIC (Bacillus subtilis) [µg/mL] | MIC [2] [µg/mL] | MIC [3] [µg/mL] | MIC [4] [µg/mL] | MIC (S. aureus MRSA 4591) [µg/mL] | MIC (S. epidermidis 8700B) [µg/mL] | MIC (P. aeruginosa 16575) [µg/mL] | MIC (E. coli 16702) [µg/mL] | MIC (E. faecium VanA 419ana) [µg/mL] | MIC (S. haemolyticus 16568) [µg/mL] | MIC [5] [µg/mL] | MIC [6] [µg/mL] | MIC [7] [µg/mL] | MIC [8] [µg/mL] |
| --- | --- | --- | --- | --- | --- | --- | --- | --- | --- | --- | --- | --- | --- | --- | --- | --- |
| CCCCCCCCCCCCCCOP(=O)(CCN1CCC(N)C1)OC[C@H]1O[C@@H](n2ccc(=O)[nH]c2=O)C(O)C1O (stereo partly shown) [Example 10, Tetradecyl-uridine-5′-yl-(3-aminopyrrolidin-1-N-yl) ethyl phosphonate] | 3.12 (≈ 5.07 µM) | 3.12 (≈ 5.07 µM) | 1.56 (≈ 2.53 µM) | 3.12 (≈ 5.07 µM) | 6.25 (≈ 10.1 µM) | 12.5 (≈ 20.3 µM) | 25 (≈ 40.5 µM) | 3.12 (≈ 5.07 µM) | 3.12 (≈ 5.07 µM) | 3.12 (≈ 5.07 µM) | 50 (≈ 81.1 µM) | 6.25 (≈ 10.1 µM) |  |  |  |  |
| CCCCCCCCCCCCCCOP(=O)(CCN(CCN)CCN)OC[C@H]1O[C@@H](n2ccc(=O)[nH]c2=O)C(O)C1O (stereo partly shown) [Example 7, Tetradecyl-uridine-5′-yl-2-N-bis(3-aminoethyl)-2-aminoethyl phosphonate] | 12.5 (≈ 19.7 µM) | 6.25 (≈ 9.86 µM) | 6.25 (≈ 9.86 µM) | 3.12 (≈ 4.93 µM) | 100 (≈ 158 µM) | 25 (≈ 39.4 µM) | 12.5 (≈ 19.7 µM) | 3.12 (≈ 4.93 µM) | 6.25 (≈ 9.86 µM) | 6.25 (≈ 9.86 µM) | 100 (≈ 158 µM) | 3.12 (≈ 4.93 µM) | 12.5 (≈ 19.7 µM) | 12.5 (≈ 19.7 µM) | 25 (≈ 39.4 µM) | 6.25 (≈ 9.86 µM) |
| CCCCCCCCCCCCOP(=O)(CCN(CCCN)CCCN)OC[C@H]1O[C@@H](n2ccc(=O)[nH]c2=O)C(O)C1O (stereo partly shown) [Example 5, Dodecyl-uridine-5′-yl-2-N-bis (3-aminopropyl)-2-aminoethyl phosphonate] | 25 (≈ 39.4 µM) | 12.5 (≈ 19.7 µM) | 3.12 (≈ 4.93 µM) | 3.12 (≈ 4.93 µM) | 100 (≈ 158 µM) | 25 (≈ 39.4 µM) | 50 (≈ 78.9 µM) | 12.5 (≈ 19.7 µM) | 12.5 (≈ 19.7 µM) | 25 (≈ 39.4 µM) | 200 (≈ 316 µM) | 12.5 (≈ 19.7 µM) |  |  |  |  |
| CCCCCCCCCCCCCCCCOP(=O)(CCN(CCCN)CCCN)OC[C@H]1O[C@@H](n2ccc(=O)[nH]c2=O)C(O)C1O (stereo partly shown) [Example 1, Hexadecyl-uridine-5′-yl-2-N-bis (3-aminopropyl)-2-aminoethyl phosphonate] | 3.12 (≈ 4.53 µM) | 3.12 (≈ 4.53 µM) | 0.78 (≈ 1.13 µM) | 6.25 (≈ 9.06 µM) | 50 (≈ 72.5 µM) | 12.5 (≈ 18.1 µM) | 25 (≈ 36.2 µM) | 3.12 (≈ 4.53 µM) | 3.12 (≈ 4.53 µM) | 3.12 (≈ 4.53 µM) | 25 (≈ 36.2 µM) | 3.12 (≈ 4.53 µM) |  |  |  |  |
| CCCCCCCCCCCCCCCOP(=O)(CCN(CCN)CCN)OC[C@H]1O[C@@H](n2ccc(=O)[nH]c2=O)C(O)C1O (stereo partly shown) [Example 6, Pentadecyl-uridine-5′-yl-2-N-bis(3-aminoethyl)-2-aminoethyl phosphonate] | 1.56 (≈ 2.41 µM) | 3.12 (≈ 4.82 µM) | 0.78 (≈ 1.2 µM) | 1.56 (≈ 2.41 µM) | 12.5 (≈ 19.3 µM) | 6.25 (≈ 9.65 µM) | 6.25 (≈ 9.65 µM) | 1.56 (≈ 2.41 µM) | 1.56 (≈ 2.41 µM) | 1.56 (≈ 2.41 µM) | 100 (≈ 154 µM) | 1.56 (≈ 2.41 µM) |  |  |  |  |
